Reference: patent US20210023029A1, “EDASALONEXENT DOSING REGIMEN FOR TREATING MUSCULAR DYSTROPHY” (Catabasis Pharmaceuticals, Inc., priority 2017, published 2021)
Entries after “also recorded” stand apart in the source; their conditions may differ.

What was measured:
[1] = system: boys with DMD; test: MoveDMD trial: NSAA and timed function tests in boys with DMD; format: in vivo, human
Procedure: The MoveDMD trial (see FIG. 10) was designed to evaluate efficacy, safety/tolerability, pharmacokinetics (PK), pharmacodynamics (PD), and dose response of edasalonexent. The first phase portion of the MoveDMD trial was a 1-week study to evaluate the safety, PK, and PD at 33 and 67 mg/kg/day, given in 2 divided doses, and 100 mg/kg/day given in 3 divided doses. The second phase and the open-label extension (OLE) portions of the MoveDMD trial enrolled boys ages 4 through 7 with DMD. Phase 2 was a 12-week placebo-controlled study with two cohorts given 33 mg/kg twice daily (BID; 67 mg/kg/day; n=10) or 33 mg/kg three times daily (TID; 100 mg/kg/day; n=10), and a placebo cohort (n=10). Patients in the OLE continued with either dose regimen of edasalonexent. The North Star Ambulatory Assessment (NSAA) is a validated functional scale specifically designed for ambulant boys with DMD and measures overall function in young boys. […] The 10-meter walk/run, 4-stair climb, and time to stand are all timed tests used as a measure of function in boys with DMD. In each of these tests, as shown in FIGS. 15-17, the average rate of change of speed by study subjects in completing these physical tasks stabilized during the 60 week 100 mg/kg/day edasalonexent treatment period as compared with the rate of change during the off-treatment control period (36 weeks preceding the treatment period). All timed function test values stabilized during the treatment period.

[2] = MoveDMD trial: systemic exposure and Ctrough in DMD patients; format: in vivo, human; settings: for daily exposure level versus level effective in inhibiting NF-κB in the adult study: boys with DMD
Procedure: The MoveDMD trial (see FIG. 10) was designed to evaluate efficacy, safety/tolerability, pharmacokinetics (PK), pharmacodynamics (PD), and dose response of edasalonexent. The first phase portion of the MoveDMD trial was a 1-week study to evaluate the safety, PK, and PD at 33 and 67 mg/kg/day, given in 2 divided doses, and 100 mg/kg/day given in 3 divided doses.
(§1) The second phase and the open-label extension (OLE) portions of the MoveDMD trial enrolled boys ages 4 through 7 with DMD. Phase 2 was a 12-week placebo-controlled study with two cohorts given 33 mg/kg twice daily (BID; 67 mg/kg/day; n=10) or 33 mg/kg three times daily (TID; 100 mg/kg/day; n=10), and a placebo cohort (n=10). Patients in the OLE continued with either dose regimen of edasalonexent.
The ratios of all 24 transcripts within a patient were also averaged, and are shown in FIG. 13 using symbols which represent this average from each individual patient. This average was graphed against the average edasalonexent Ctrough values within each dose cohort (shown on the x-axis in ng/ml).

[3] = system: boys with DMD; test: MoveDMD trial: MRI-T2 and MR spectroscopy fat fraction of leg muscles; format: in vivo, human
Description: The MR transverse relaxation time constant assessed by MRI (MRI-T2; also referred to as bulk T2) is sensitive to several pathophysiological features of disease pathology in DMD, including muscle damage, inflammation, and fat infiltration and provides a method for monitoring disease pathology over a wide age range. Furthermore, the proportion of fat infiltration in the muscle (fat fraction), measured using the gold standard, proton MRS (^1H-MRS), or a 3-point Dixon imaging technique, is associated with disease progression and correlates with performance on functional tests. (Willcocks et al., (2016), ANN. NEUROL., 79(4):535-47; Barnard et al., (2018), PLoS ONE, 13(3):E0194283). These are non-invasive measures of disease progression in DMD that are elevated and increase with age; changes in these measures strongly correlate with changes in function and predict future loss of functional milestones. […] The MRI-T2 value was a composite of 5 lower leg muscles. Stabilization of MRI-T2 values is consistent with the concomitant slowing of DMD disease progression observed through the functional assessments discussed previously.

[4] = system: NF-κB; settings: cited from earlier work
[5] = system: boys with DMD; test: MoveDMD trial: safety and tolerability; format: in vivo, human
Procedure: as §1, with “The MoveDMD trial (see FIG. 10) was designed to evaluate efficacy, safety/tolerability, pharmacokinetics (PK), pharmacodynamics (PD), and dose response of edasalonexent. The first phase portion of the MoveDMD trial was a 1-week study to evaluate the safety, PK, and PD at 33 and 67 mg/kg/day, given in 2 divided doses, and 100 mg/kg/day given in 3 divided doses. The” for “The”

[6] = system: mdx mice; settings: cited from earlier work
[7] = system: NF-κB; settings: dog model of DMD; cited from earlier work
[8] = 100 mg/kg/day versus 133 mg/kg/day (33/33/67 mg/kg)
[9] = 100 mg/kg/day, 60 weeks, compared to 36 week off-treatment control period
[10] = after 48 weeks receiving 100 mg/kg/day

CC/C=C\C/C=C\C/C=C\C/C=C\C/C=C\C/C=C\CCC(=O)NCCNC(=O)c1ccccc1O [edasalonexent, N-(2-[(4Z,7Z,10Z,13Z,16Z,19Z)-docosa-4,7,10,13,16,19-hexaenamido]ethyl)-2-hydroxybenzamide]
muscle function and DMD disease progression ([1]; 33 mg/kg TID (100 mg/kg/day), 60 weeks, compared to off-treatment control period): clinically meaningful slowing of disease progression; also recorded: preservation of muscle function and slowing of DMD disease progression | efficacy compared to the 133 mg/kg/day dosing regimen [1, 8]: equally effective | 4-stair climb, average rate of change of speed [1, 9]: stabilized | 10-meter walk/run, average rate of change of speed [1, 9]: stabilized | North Star Ambulatory Assessment (NSAA) score, rate of change [1, 9]: stabilized | time to stand, average rate of change of speed [1, 9]: stabilized | treatment effects ([1]; boys affected by DMD enrolled at age 4-7, MoveDMD phase 2 trial and open-label extension): positive treatment effects | daily exposure level versus level effective in inhibiting NF-κB in the adult study ([2]; 67 mg/kg/day (33 mg/kg twice daily)): comparable | daily exposure level versus level effective in inhibiting NF-κB in the adult study ([2]; 100 mg/kg/day (33 mg/kg three times daily)): comparable | mean Ctrough level ([2]; 100 mg/kg/day compared to 33 and 67 mg/kg/day, after one week): highest Ctrough level | annualized rate of change of MRI-T2 values (composite of 5 lower leg muscles) ([3]; 100 mg/kg/day treatment period (60 weeks) versus off-treatment period (36 weeks)): significantly improved | change in fat fraction, soleus (MR spectroscopy) [3, 10]: 0.85% | change in fat fraction, vastus lateralis (MR spectroscopy) [3, 10]: 5.9% | expression of NF-κB driven genes in whole blood ([4]; adult study, dose of approximately 100 mg/kg/day): changes in expression of NF-κB driven genes were observed | levels of the p65 subunit of NF-κB ([4]; healthy adult humans, compared to placebo or salicylate and omega-3 DHA as separate molecules): lowers levels of the p65 subunit of NF-κB | biomarkers of inflammation in whole blood ([4]; humans): decrease of biomarkers of inflammation | activated NF-κB pathways ([4]; phase 1 clinical program in adults (Donovan et al. 2017)): inhibited activated NF-κB pathways | safety and tolerability ([4]; phase 1 clinical program, three placebo-controlled studies in adults (Donovan et al. 2017)): safe and well-tolerated | nature of the majority of adverse events ([5]; 100 mg/kg, study subjects): mild in nature and mostly gastrointestinal | safety findings ([5]; 100 mg/kg, study subjects): no adverse findings | tolerability ([5]; 100 mg/kg, study subjects): well tolerated | trends in hematology, chemistry, renal or adrenal function, calcium or phosphate levels ([5]; 100 mg/kg, study subjects): No adverse trends | side effects compared to the 133 mg/kg/day dosing regimen [5, 8]: fewer side effects | heart rate ([5]; study subjects over the 60 week study period): decreased toward age normative values | height and weight ([5]; study subjects over the treatment period, CDC Growth Chart percentiles): age appropriate increases | diaphragm function and cumulative run distance ([6]; long-term studies on mdx mice (Milne et al. 2014)): improved diaphragm function and increased cumulative run distance | muscle regeneration, degeneration, inflammation and function ([6]; mdx mice (Milne et al. 2014)): enhance muscle regeneration, reduce muscle degeneration and inflammation, and preserve muscle function | NF-κB activity (binding of p65 subunit to DNA, secretion of TNF-α) [7]: decreases NF-κB activity
